The values below come from US8178548B2, “Anti-infective agents and uses thereof” (priority 2007, dated 2012).

In assay [1] the test system is genotype 1b-Con1 subgenomic replicon cell line. As to the kind of experiment: HCV Polymerase Replicon Assay, genotype 1b-Con1 (luciferase reporter). The note with it: read-out: EC50 1b. The assay is classed as cell-based. In general terms: Replicon systems follow genome replication, usually without infectious particles.
The subject of assay [2] is genotype 1a-H77 subgenomic replicon cell line. As to the kind of experiment: HCV Polymerase Replicon Assay, genotype 1a-H77 (luciferase reporter). The assay is classed as cell-based. The settings on record: read-out: EC50 1a.
Assay [3] concerns the target T1, HCV polymerase 1B (Δ21 NS5B, HCV Strain 1B BK) (Hepatitis C virus genotype 1b, UniProt P26663).
T1 construct: 20 to 50 nM Δ21 NS5B
In words: biochemical. As for the experimental part:
(§1) Either two-fold serial dilutions (fractional inhibition assay) or a narrower range of dilutions spanning the IC50 of the inhibitor (tight binding assay) of the inhibitors were incubated with 20 mM Tris-Cl pH 7.4, 2 mM MnCl2, 1 mM dithiothreitol, 1 mM ethylene diamine tetraacetic acid (EDTA), 60 to 125 μM GTP and 20 to 50 nM Δ21 NS5B (HCV Strain 1B (BK, Genbank accession number M58335, or H77, Genbank accession number AF011751)) for 15 min at room temperature. The reaction was initiated by the addition of 20 μM CTP, 20 μM ATP, 1 μM ^3H-UTP (10 mCi/umol), 5 nM template RNA and 0.1 U/μl RNase inhibitor (RNasin, Promega), and allowed to proceed for 2 to 4 h at room temperature. Reaction volume was 50 μl. The reaction was terminated by the addition of 1 volume of 4 mM spermine in 10 mM Tris-Cl pH 8.0, 1 mM EDTA. After incubation for at least 15 min at room temperature, the precipitated RNA was captured by filtering through a GF/B filter (Millipore) in a 96 well format. The filter plate was washed three times with 200 μl each of 2 mM spermine, 10 mM Tris-Cl pH 8.0, 1 mM EDTA, and 2 times with ethanol. After air-drying, 30 μl of Microscint 20 scintillation cocktail (Packard) was added to each well, and the retained cpm were determined by scintillation counting. […] Retained cpm were plotted vs. inhibitor concentration and fit to equation 1 using non-linear regression (ref. 1) to obtain the IC50 values: Retained cpm=A[sqrt{(IC50+It−Et)^2+4*IC50*Et}−(IC50+It−Et)]
(§2) Ref. Morrison, J. F. and S. R. Stone. 1985. Approaches to the study and analysis of the inhibition of enzymes by slow- and tight-binding inhibitors. Comments Mol. Cell. Biophys. 2: 347-368.
(§3) The sequence of the template RNA used was: 5′-[…] […] […] […] […] […] […] […] […] […] […] […] […] […] […] […] […]-3′ (SEQ ID NO:1).

For assay [4], the target named is T2, HCV polymerase 1A (Δ21 NS5B, H77) (Hepatitis C virus genotype 1a, UniProt P27958).
T2 construct: 20 to 50 nM Δ21 NS5B
T2 sequence (P27958 2421-2990, stated change not applied): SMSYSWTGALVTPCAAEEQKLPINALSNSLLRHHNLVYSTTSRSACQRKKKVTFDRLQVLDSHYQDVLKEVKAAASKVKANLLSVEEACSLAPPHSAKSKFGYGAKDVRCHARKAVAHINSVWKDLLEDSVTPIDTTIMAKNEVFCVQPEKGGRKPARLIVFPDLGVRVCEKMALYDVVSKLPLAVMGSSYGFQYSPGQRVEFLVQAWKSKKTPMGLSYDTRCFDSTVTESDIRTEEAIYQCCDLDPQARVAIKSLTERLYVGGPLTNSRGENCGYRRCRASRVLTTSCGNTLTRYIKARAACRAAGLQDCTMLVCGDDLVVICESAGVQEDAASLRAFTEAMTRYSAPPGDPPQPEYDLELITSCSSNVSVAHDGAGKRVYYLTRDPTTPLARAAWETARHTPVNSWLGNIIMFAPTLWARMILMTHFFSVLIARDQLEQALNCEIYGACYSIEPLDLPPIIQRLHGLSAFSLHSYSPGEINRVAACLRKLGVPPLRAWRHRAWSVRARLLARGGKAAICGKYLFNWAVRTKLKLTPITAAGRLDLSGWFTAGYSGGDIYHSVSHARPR
In words: biochemical. As for the experimental part:
as §1, §2, §3

Setting [5] is: Hepatitis C virus, 72 h, replicon 1b-Con1, luciferase, three days.
The mark [6] stands for this setting: Hepatitis C virus, 72 h, replicon 1a-H77, luciferase, three days.

Where two headings read alike, the source gives them in different places.

T1 sequence (P26663 2420-2989, stated change not applied): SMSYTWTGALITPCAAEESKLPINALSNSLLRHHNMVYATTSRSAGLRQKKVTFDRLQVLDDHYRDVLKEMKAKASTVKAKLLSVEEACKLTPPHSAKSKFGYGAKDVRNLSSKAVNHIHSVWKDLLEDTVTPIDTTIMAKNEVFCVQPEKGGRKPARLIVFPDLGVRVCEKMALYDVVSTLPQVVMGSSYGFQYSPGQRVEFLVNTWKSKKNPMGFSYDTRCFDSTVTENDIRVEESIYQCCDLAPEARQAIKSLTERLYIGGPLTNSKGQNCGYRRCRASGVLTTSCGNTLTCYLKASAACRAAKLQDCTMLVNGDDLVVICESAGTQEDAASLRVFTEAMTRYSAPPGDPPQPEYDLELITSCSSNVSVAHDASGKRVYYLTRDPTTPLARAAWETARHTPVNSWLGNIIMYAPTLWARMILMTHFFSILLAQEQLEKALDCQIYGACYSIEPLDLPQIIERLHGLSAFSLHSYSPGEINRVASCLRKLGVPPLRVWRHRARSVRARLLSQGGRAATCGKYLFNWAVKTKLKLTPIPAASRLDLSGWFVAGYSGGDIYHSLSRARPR

In general, EC50 refers to the concentration at which the effect is half-maximal. In general, IC50 refers to the point on the concentration scale where inhibition reaches its midpoint. As for `CC(C)(C)c1cc(CCc2ccc(NS(C)(=O)=O)cc2)cc(N2CCC(=O)NC2=O)c1` [IA-L5-2-1.2, N-(4-(3-tert-butyl-5-(2,4-dioxotetrahydropyrimidin-1(2H)-yl)phenethyl)phenyl)methane sulfonamide], the EC50 in assay [1] (setting [5]) and in assay [2] (setting [6]) was 100 to 1000 nM in each case. Moreover, the IC50 in assay [3] and in assay [4] was 10 to 100 nM in each case.

`CO/C(=C\c1cc(N2CCC(=O)NC2=O)cc(C(C)(C)C)c1OC)c1ccc(NS(C)(=O)=O)cc1` [IA-L1-1.17, (Z)-N-(4-(2-(3-tert-butyl-5-(2,4-dioxotetrahydropyrimidin-1(2H)-yl)-2-methoxyphenyl)-1-methoxyvinyl)phenyl)methanesulfonamide]: the EC50 in assay [1] (Hepatitis C virus, 72 h) was 10 to 100 nM; in assay [2] (Hepatitis C virus, 72 h), 10 to 100 nM. The IC50 in assay [3] and in assay [4] was 10 to 100 nM throughout.

For `COC(=O)c1cc(NS(C)(=O)=O)ccc1CCc1cc(-n2ccc(=O)[nH]c2=O)cc(C(C)(C)C)c1OC` [IB-L5-2-1.1, methyl 2-(3-tert-butyl-5-(2,4-dioxo-3,4-dihydropyrimidin-1(2H)-yl)-2-methoxyphenethyl)-5-(methylsulfonamido)benzoate], the EC50 in assay [1] (setting [5]) is under 10 nM; in assay [2] (setting [6]) it was 10 to 100 nM. The results for the IC50 in assay [3] and in assay [4] were 10 to 100 nM and under 10 nM, respectively.

As to `COc1c(/C=C/c2ccccc2)cc(N2CCC(=O)NC2=O)cc1C(C)(C)C` [IA-L1-1.18, (E)-1-(3-tert-butyl-4-methoxy-5-styrylphenyl)dihydro-pyrimidine-2,4(1H,3H)-dione], the EC50 was in the range of 100 to 1000 nM in assay [1] (Hepatitis C virus, 72 h) and 100 to 1000 nM in assay [2] (Hepatitis C virus, 72 h). The IC50 in assay [3] and in assay [4] was 100 to 1000 nM each time.

Consider `COc1c(/C=C(/F)c2ccc(NS(C)(=O)=O)cc2)cc(N2CCC(=O)NC2=O)cc1C(C)(C)C` [IA-L1-1.5, (E)-N-(4-(2-(3-tert-butyl-5-(2,4-dioxotetrahydropyrimidin-1(2H)-yl)-2-methoxyphenyl)-1-fluorovinyl)phenyl)methanesulfonamide], for which the EC50 in assay [1] (Hepatitis C virus, 72 h) was under 10 nM; in assay [2] (Hepatitis C virus, 72 h), 10 to 100 nM. Further, the figures for the IC50 in assay [3] and in assay [4] were 10 to 100 nM and under 10 nM, respectively.

Regarding `COc1c(/C=C/c2ccc(NS(C)(=O)=O)cc2CNCCC(C)C)cc(-n2ccc(=O)[nH]c2=O)cc1C(C)(C)C` [IB-L1-1.31, (E)-N-(4-(3-tert-butyl-5-(2,4-dioxo-3,4-dihydropyrimidin-1(2H)-yl)-2-methoxystyryl)-3-((isopentylamino)methyl)phenyl)methanesulfonamide], the EC50 in assay [1] (Hepatitis C virus, 72 h) was over 1000 nM; in assay [2] (Hepatitis C virus, 72 h), over 1000 nM. In addition, the IC50 in assay [3] is 100 to 1000 nM; in assay [4], 10 to 100 nM.

Turning to `COc1c(/C=C/c2ccc(NS(C)(=O)=O)cc2)cc(-n2ccc(=O)[nH]c2=O)cc1C(C)(C)C` [IB-L1-1.1, (E)-N-(4-(3-tert-butyl-5-(2,4-dioxo-3,4-dihydropyrimidin-1(2H)-yl)-2-methoxystyryl)phenyl)methanesulfonamide], the EC50 in assay [1] (Hepatitis C virus, 72 h) is under 10 nM; in assay [2] (Hepatitis C virus, 72 h) it was under 10 nM. Also, the IC50 in assay [3] and in assay [4] was under 10 nM in each case.

With `COc1c(/C=C/c2ccc(NS(C)(=O)=O)c(F)c2)cc(N2CCC(=O)NC2=O)cc1C(C)(C)C` [IA-L1-1.26, (E)-N-(4-(3-tert-butyl-5-(2,4-dioxotetrahydropyrimidin-1(2H)-yl)-2-methoxystyryl)-2-fluorophenyl)methanesulfonamide], the EC50 in assay [1] (Hepatitis C virus, 72 h) fell in the range of 10 to 100 nM; in assay [2] (Hepatitis C virus, 72 h) it was 10 to 100 nM. Moreover, the IC50 in assay [3] and in assay [4] was 10 to 100 nM throughout.

Consider `COc1c(/C=C/c2ccc(F)cc2)cc(N2CCC(=O)NC2=O)cc1C(C)(C)C` [IA-L1-1.12, (E)-1-(3-tert-butyl-5-(4-fluorostyryl)-4-methoxyphenyl) dihydropyrimidine-2,4(1H,3H)-dione], for which the EC50 fell in the range of 100 to 1000 nM in assay [1] (Hepatitis C virus, 72 h) and 100 to 1000 nM in assay [2] (Hepatitis C virus, 72 h). Further, the IC50 in assay [3] and in assay [4] was 100 to 1000 nM each time.

As for `COc1cc(NS(C)(=O)=O)ccc1/C=C/c1cc(N2CCC(=O)NC2=O)cc(C(C)(C)C)c1OC` [IA-L1-1.27, N-(4-{(E)-2-[3-tert-Butyl-5-(dioxo-tetrahydro-pyrimidin-1-yl)-2-methoxy-phenyl]-vinyl}-3-methoxy-phenyl)-methanesulfonamide], the concentration giving a half-maximal response (EC50) is under 10 nM in assay [1] (replicon 1b-Con1, luciferase, three days) and 10 to 100 nM in assay [2] (replicon 1a-H77, luciferase, three days). Also, the IC50 in assay [3] (HCV polymerase 1b, read-out: IC50 1b) was 10 to 100 nM; in assay [4] (HCV polymerase 1a, read-out: IC50 1a) it was under 10 nM.

Take `COc1c(CCc2ccc(NS(C)(=O)=O)cc2)cc(N2CCC(=O)NC2=O)cc1C(C)(C)C` [IA-L5-2-1.1, N-(4-(3-tert-butyl-5-(2,4-dioxotetrahydropyrimidin-1(2H)-yl)-2-methoxyphenethyl)phenyl)methanesulfonamide]: the EC50 in assay [1] (setting [5]) lay in the range of 10 to 100 nM; in assay [2] (setting [6]) it was 100 to 1000 nM. The IC50 in assay [3] and in assay [4] was 10 to 100 nM in each case.

Consider `COCc1cc(NS(C)(=O)=O)ccc1/C=C/c1cc(-n2ccc(=O)[nH]c2=O)cc(C(C)(C)C)c1OC` [IB-L1-1.13, (E)-N-(4-(3-tert-butyl-5-(2,4-dioxo-3,4-dihydropyrimidin-1(2H)-yl)-2-methoxystyryl)-3-(methoxymethyl)phenyl)methanesulfonamide], for which the 50% effective concentration (EC50) in assay [1] (Hepatitis C virus, 72 h) is under 10 nM; in assay [2] (Hepatitis C virus, 72 h), 10 to 100 nM. The IC50 was 10 to 100 nM in assay [3] and under 10 nM in assay [4].

On to `COc1c(/C=C/c2ccc(NS(C)(=O)=O)cc2)cc(-n2ccc(=O)[nH]c2=O)cc1-c1ccoc1` [IB-L1-1.50, (E)-N-(4-(5-(2,4-dioxo-3,4-dihydropyrimidin-1(2H)-yl)-3-(furan-3-yl)-2-methoxystyryl)phenyl)methanesulfonamide], for which the EC50 in assay [1] (setting [5]) fell in the range of 10 to 100 nM; in assay [2] (setting [6]) it was 100 to 1000 nM. Further, the IC50 in assay [3] and in assay [4] was 10 to 100 nM in each case.

Regarding `COc1c(/C=C(\Cl)c2ccc([N+](=O)[O-])cc2)cc(N2CCC(=O)NC2=O)cc1C(C)(C)C` [IA-L1-1.23, 1-{3-tert-butyl-5-[(Z)-2-chloro-2-(4-nitro-phenyl)-vinyl]-4-methoxy-phenyl}-dihydropyrimidine-2,4-dione], the EC50 in assay [1] (Hepatitis C virus, 72 h) is over 1000 nM; in assay [2] (Hepatitis C virus, 72 h), over 1000 nM. In addition, the IC50 in assay [3] and in assay [4] was 100 to 1000 nM throughout.

Turning to `COc1c(/C=C/c2ccc(NS(C)(=O)=O)cc2)cc(-n2ccc(=O)[nH]c2=O)cc1-c1ccsc1` [IB-L1-1.47, (E)-N-(4-(5-(2,4-dioxo-3,4-dihydropyrimidin-1(2H)-yl)-2-methoxy-3-(thiophen-3-yl)styryl)phenyl)methanesulfonamide], the EC50 in assay [1] (setting [5]) lay in the range of 10 to 100 nM; in assay [2] (setting [6]), 100 to 1000 nM. The 50% inhibitory concentration (IC50) in assay [3] and in assay [4] was 10 to 100 nM throughout.

As to `CCOC(=O)c1cc(NS(C)(=O)=O)ccc1/C=C/c1cc(-n2ccc(=O)[nH]c2=O)cc(C(C)(C)C)c1OC` [IB-L1-1.11, 2-{(E)-2-[3-tert-Butyl-5-(2,4-dioxo-3,4-dihydro-2H-pyrimidin-1-yl)-2-methoxy-phenyl]-vinyl}-5-methanesulfonylamino-benzoic acid ethyl ester], the EC50 is under 10 nM in assay [1] (Hepatitis C virus, 72 h) and 10 to 100 nM in assay [2] (Hepatitis C virus, 72 h). Moreover, the IC50 in assay [3] was 10 to 100 nM; in assay [4], under 10 nM.

Take `COc1c(/C=C/c2ccc(NS(C)(=O)=O)cc2C=NO)cc(-n2ccc(=O)[nH]c2=O)cc1C(C)(C)C` [IB-L1-1.8, N-[4-{(E)-2-[3-tert-Butyl-5-(2,4-dioxo-3,4-dihydro-2H-pyrimidin-1-yl)-2-methoxy-phenyl]-vinyl}-3-(hydroxyimino-methyl)-phenyl]-methanesulfonamide]: the EC50 in assay [1] (Hepatitis C virus, 72 h) is under 10 nM; in assay [2] (Hepatitis C virus, 72 h) it was 10 to 100 nM. Moreover, the IC50 in assay [3] was 10 to 100 nM; in assay [4] it was under 10 nM.

Regarding `COc1c(/C=C/c2ccc(NS(C)(=O)=O)cc2CN2CC(O)C2)cc(-n2ccc(=O)[nH]c2=O)cc1C(C)(C)C` [IB-L1-1.29, N-[4-{(E)-2-[3-tert-butyl-5-(2,4-dioxo-3,4-dihydro-2H-pyrimidin-1-yl)-2-methoxy-phenyl]-vinyl}-3-(3-hydroxy-azetidin-1-ylmethyl)-phenyl]-methanesulfonamide], the EC50 is 100 to 1000 nM in assay [1] (Hepatitis C virus, 72 h) and 100 to 1000 nM in assay [2] (Hepatitis C virus, 72 h). In addition, the IC50 in assay [3] and in assay [4] was 10 to 100 nM in each case.
